Experimental data as given in patent US5202348A, “Thiarubrine antifungal agents” (The University of British Columbia, priority 1990, dated 1993).
In brackets after ≈: the same amount, converted by molar mass. Read-outs that look alike come from different tables or passages of the source.

How the values were obtained:
Aspergillus = experiment: Anti-Aspergillus activity (summary); assay type: cell-based; conditions: Table 14;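 note: Letter grades where Y means active and y means less active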
C. albicans [1] = experiment: LC50 (24 hrs.), doses required to inhibit growth in 50%, different method; assay type: cell-based, Candida albicans; conditions: for IC50: Candida albicans, 24 hrs.
Description: Doses Required to Inhibit Growth of C. albicans
in 50% During 24 hrs. (ng/ml)

Candida = experiment: Anti-Candida activity (summary); assay type: cell-based; conditions: Table 14;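 note: Letter grades where Y means active and y means less active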
bacteria = experiment: Anti-bacterial activity (summary); assay type: cell-based; conditions: Table 14
P815 mastocytoma = experiment: LC50 (24 hrs.), doses required to inhibit growth in 50%, different method; assay type: cell-based; conditions: Mus musculus, P815, 24 h
C. albicans [2] = experiment: Growth inhibition of C. albicans during 24 hours exposure; assay type: cell-based, Candida albicans; conditions: 24 hours exposure; for IC50: Candida albicans
Description: (§1) Doses inhibiting growth in 50% were estimated by plotting concentration o
(§2) a logarithmic scale and percent of growth inhibition for 24 hours exposur
(§3) on a probability scale.

P. aeruginosa [3] = experiment: Growth inhibition of P. aeruginosa during 24 hours exposure; assay type: cell-based, Pseudomonas aeruginosa; conditions: for Minimal concentration causing 100% growth inhibition: Table 3
[4] = Growth inhibition of L1210 during 24 hours exposure; assay type: cell-based, Mouse; conditions: mouse, l1210 cells; Table 2; read-out: Toxicity Index, LC50 L1210 / C. albicans
Description: (§4) L1210 = Mouse lymphocytic leukemia
as §1, §2, §3

L1210 = experiment: as above; assay type: cell-based, Mouse; conditions: Mus musculus, L1210; 24 hours exposure; Table 1; read-out: Concentration causing 50% growth inhibition
Description: as §4, §1, §2, §3

Aspergillus fumigatus = experiment: Sensitivity of Aspergillus fumigatus, agar diffusion method; assay type: cell-based; conditions: disc diameter 6 mm, read-out: Zone of Growth Inhibition
Description: Results were obtained by agar diffusion method. Disc diameter - 6 mm. -* = no zone over disc diameter.

[5] = Growth inhibition of P815 mastocytoma during 24 hours exposure; assay type: cell-based, Mouse; conditions: mouse, p815 cells
Description: (§5) P815 = Mouse mastocytoma […]
as §2, §3

P815 = experiment: as above; assay type: cell-based, Mouse; conditions: 24 hours exposure
Description: as §5, §2, §3

E. coli [6] = experiment: Growth inhibition of E. coli during 24 hours exposure; assay type: cell-based, Escherichia coli; conditions: 24 hours exposure, Table 3
P. aeruginosa [7] = experiment: Growth inhibition of P. aeruginosa during 24 hours exposure; assay type: cell-based, Pseudomonas aeruginosa; conditions: 24 hours exposure, Table 4
Description: as §1, §2, §3

[8] = Growth inhibition of 3T3 during 24 hours exposure; assay type: cell-based, Mouse; conditions: mouse, 3t3 cells; Table 2; read-out: Toxicity Index, LC50 3T3 / LC50 C. albicans
Description: (§6) 3T3 = Mouse fibroblasts
as §1, §2, §3

3T3 = experiment: Growth inhibition of 3T3 during 24 hours exposure; assay type: cell-based, Mouse; conditions: Mus musculus, NIH3T3; 24 hours exposure; Table 1; read-out: Concentration causing 50% growth inhibition
Description: as §6, §1, §2, §3

E. coli [9] = experiment: Growth inhibition of E. coli during 24 hours exposure; assay type: cell-based, Escherichia coli; conditions: 24 hours exposure, Table 4
Description: as §1, §2, §3

C. albicans [10] = experiment: Growth inhibition of C. albicans during 24 hours exposure; assay type: cell-based, Candida albicans; conditions: 24 hours exposure, Table 3
[11] = Growth inhibition of WEHI-3 during 24 hours exposure; assay type: cell-based, Mouse; conditions: mouse, wehi-3 cells; Table 2; read-out: Toxicity Index, LC50 WEHI-3 / LC50 C. albicans
Description: (§7) WEHl3 = Mouse myelomonocyte
as §1, §2, §3

WEHI-3 = experiment: as above; assay type: cell-based, Mouse; conditions: Mus musculus, WEHI-3; 24 hours exposure; Table 1; read-out: Concentration causing 50% growth inhibition
Description: as §7, §1, §2, §3

[12] = system: murine cytomegalovirus and Sindbis virus; conditions: phototoxic activity; cited from earlier work
[13] = system: above organisms, as well as CHO cells; conditions: UV-A light required; cited from earlier work
murine cytomegalovirus = conditions: only in presence of long wave ultraviolet radiation; cited from earlier work
Sindbis virus = conditions: only in presence of long wave ultraviolet radiation; cited from earlier work
[14] = Table 13, read-out: Lc50 24 hrs.
[15] = Table 7, read-out: LC50 (24 hrs.), dose required to inhibit growth in 50%

CC#CC1=CC=C(C#CC#CC(O)CCl)SS1 (stereo not drawn) [Thiarubrine G]
Anti-Aspergillus (Aspergillus): Y | Inhibition of growth of Candida albicans (C. albicans [1]): nanogram/ml range | IC50 (C. albicans [1]; [14]): 0.008 µg/mL (≈ 0.0285 µM) | Anti-Candida (Candida): Y | Anti-bacterial (bacteria): Y | IC50 (P815 mastocytoma; read-out: Lc50 24 hrs.): 0.09 µg/mL (≈ 0.321 µM)

CC#CC1=CC=C(C#CC#CC(O)CO)SS1 (stereo not drawn) [Thiarubrine E]
IC50 (C. albicans [2]; Table 1, read-out: Concentration causing 50% growth inhibition): 0.0014 µg/mL (≈ 0.00534 µM) | IC50 (C. albicans [2]; Table 4, read-out: Minimal concentration causing 50% growth inhibition): 0.0014 µg/mL (≈ 0.00534 µM) | Anti-Aspergillus (Aspergillus): Y | MIC (P. aeruginosa [3]; Pseudomonas aeruginosa, Table 3, read-out: Minimal concentration causing 100% growth inhibition): 0.625 µg/mL (≈ 2.38 µM) | Inhibition of growth of Candida albicans (C. albicans [1]): nanogram/ml range | IC50 (C. albicans [1]; [15]): 0.006 µg/mL (≈ 0.0229 µM) | selectivity ratio at 24 h [4]: 19 | IC50 (L1210): 0.027 µg/mL (≈ 0.103 µM) | zone of inhibition at 0.01 µg/disc (Aspergillus fumigatus; 10 ng/disc): 17 mm | zone of inhibition at 0.1 µg/disc (Aspergillus fumigatus; 100 ng/disc): 36 mm | zone of inhibition at 1 µg/disc (Aspergillus fumigatus; 1,000 ng/disc): 50 mm | zone of inhibition at 10 µg/disc (Aspergillus fumigatus; 10,000 ng/disc): 50 mm | Anti-Candida (Candida): Y | selectivity ratio at 24 h ([5]; 50% growth inhibition, Table 4, read-out: Ratio of concentration needed to inhibit growth in 50%, P815 vs C. albicans): 17 | selectivity ratio at 24 h ([5]; 100% growth inhibition, Table 3, read-out: Ratio of minimal concentration causing 100% growth inhibition, P815 line vs C. albicans): 65 | selectivity ratio at 24 h ([5]; Table 2, read-out: Toxicity Index, LC50 P815 / LC50 C. albicans): 17 | IC50 (P815; Mus musculus, P815, Table 1, read-out: Concentration causing 50% growth inhibition): 0.024 µg/mL (≈ 0.0915 µM) | IC100 (P815; Mus musculus, P815, Table 3, read-out: Minimal concentration causing 100% growth inhibition): 0.312 µg/mL | IC50 (P815; Mus musculus, P815, Table 4, read-out: Minimal concentration causing 50% growth inhibition): 0.024 µg/mL (≈ 0.0915 µM) | MIC (E. coli [6]; Escherichia coli, read-out: Minimal concentration causing 100% growth inhibition): 0.019 µg/mL (≈ 0.0724 µM) | IC50 (P. aeruginosa [7]; Pseudomonas aeruginosa, read-out: Minimal concentration causing 50% growth inhibition): 0.28 µg/mL (≈ 1.07 µM) | Anti-bacterial (bacteria): Y | selectivity ratio at 24 h [8]: 86 | IC50 (3T3): 0.12 µg/mL (≈ 0.457 µM) | IC50 (E. coli [9]; Escherichia coli, read-out: Minimal concentration causing 50% growth inhibition): 0.015 µg/mL (≈ 0.0572 µM) | MIC (C. albicans [10]; Candida albicans, read-out: Minimal concentration causing 100% growth inhibition): 0.0048 µg/mL (≈ 0.0183 µM) | IC50 (P815 mastocytoma; read-out: LC50 (24 hrs.), dose required to inhibit growth in 50%): 0.028 µg/mL (≈ 0.107 µM) | selectivity ratio at 24 h [11]: 28 | IC50 (WEHI-3): 0.04 µg/mL (≈ 0.152 µM)

C=CC#CC#Cc1ccc(C#CC)s1 [thiophene A]
Order of potency [12]: alpha-terthienyl thiarubrine-A > phenylheptatriyne > ACBP-thiophene > thiophene-A | Phototoxicity [13]: phototoxic, requiring UV-A light for biological activity

C=CC#CC#CC1=CC=C(C#CCO)SS1 [Thiarubrine H]
Inhibition of growth of Candida albicans (C. albicans [1]): nanogram/ml range | IC50 (C. albicans [1]; [14]): 0.004 µg/mL (≈ 0.0164 µM) | Anti-Candida (Candida): Y | IC50 (P815 mastocytoma; read-out: Lc50 24 hrs.): 0.059 µg/mL (≈ 0.241 µM)

C=CC#CC1=CC=C(C#CC#CC)SS1 [Thiarubrine B, 3 (pent-3-yn-1-ynyl) 6 (3-buten-1-ynyl)-1,2-dithiacyclohexa-3,5-diene, reference compound]
Anti-Aspergillus (Aspergillus): Y | Anti-Candida (Candida): Y | Anti-bacterial (bacteria): Y

CC#Cc1ccc(C#CC#CC(O)CO)s1 (stereo not drawn) [Thiophene E]
Minimal concentration causing 50% growth inhibition (C. albicans [2]; Table 4): 4.5 µg/mL | Minimal concentration causing 100% growth inhibition (P. aeruginosa [3]): > 5.0 µg/mL | Minimal concentration causing 100% growth inhibition (P815; Table 3): > 5.0 µg/mL | Minimal concentration causing 50% growth inhibition (P815; Table 4): 4.0 µg/mL | Minimal concentration causing 100% growth inhibition (E. coli [6]): > 5.0 µg/mL | Minimal concentration causing 50% growth inhibition (P. aeruginosa [7]): > 5.0 µg/mL | Minimal concentration causing 50% growth inhibition (E. coli [9]): > 5.0 µg/mL | Minimal concentration causing 100% growth inhibition (C. albicans [10]): > 5.0 µg/mL

CC#CC1=CC=C(C#CC#CC(Cl)CO)SS1 (stereo not drawn) [Thiarubrine F]
Anti-Aspergillus (Aspergillus): Y | Inhibition of growth of Candida albicans (C. albicans [1]): nanogram/ml range | IC50 (C. albicans [1]; [14]): 0.006 µg/mL (≈ 0.0214 µM) | Anti-Candida (Candida): Y | Anti-bacterial (bacteria): Y | IC50 (P815 mastocytoma; read-out: Lc50 24 hrs.): 0.14 µg/mL (≈ 0.499 µM)

Clc1ccc(COC(Cn2ccnc2)c2ccc(Cl)cc2Cl)cc1 (stereo not drawn) [Econazole, reference compound]
IC50 (C. albicans [1]; [15]): 0.056 µg/mL (≈ 0.147 µM)

C=C/C=C/C#CC1=CC=C(C#CC)SS1 [Thiarubrine C, reference compound]
Anti-Aspergillus (Aspergillus): Y | Anti-Candida (Candida): Y | Anti-bacterial (bacteria): Y

c1csc(-c2ccc(-c3cccs3)s2)c1 [alpha-terthienyl]
Toxicity to virus (murine cytomegalovirus): extremely toxic | Toxicity to virus (Sindbis virus): extremely toxic | Order of potency [12]: alpha-terthienyl thiarubrine-A > phenylheptatriyne > ACBP-thiophene > thiophene-A

Gentamycin [reference compound]
Minimal concentration causing 100% growth inhibition (P. aeruginosa [3]): 2.5 µg/mL | Minimal concentration causing 100% growth inhibition (E. coli [6]): 1.25 µg/mL | Minimal concentration causing 50% growth inhibition (P. aeruginosa [7]): 1.0 µg/mL | Minimal concentration causing 50% growth inhibition (E. coli [9]): 0.37 µg/mL
